# Measurements from US8349768B2, “Use of abscisic acid to alter sensory characteristics of white grapes and wine” (Valent BioSciences Corporation, priority 2007, dated 2013).
# Key:
# Format in all cases: in vivo, grapevine
# [1] = test system: white wine grape cultivar 'Semillon'; assay: Semillon wine sensory analysis: straight judgment of difference test; details: for Statistically significant (difference from reference wine) / Number of tasters who selected as different from reference wine/Total number of tasters: Semillon wine; for Number of tasters who selected as different from reference wine/Total number of tasters: reference = untreated control
# Description: (§1) A replicated field experiment was conducted on the white wine grape cultivar ‘Semillon’ in the Riverina growing region of New South Wales, Australia to test the effect of S-ABA on white grapes. Four treatments were tested: Untreated control, 200 ppm S-ABA applied at pre-veraison, 200 ppm S-ABA applied at veraison, and 200 ppm S-ABA applied during the post-veraison period (berry sugar level of 10-11 Baume (18-20° brix)). There were 4 replicates of each treatment and the experiment was laid out in a randomized complete block (RCB) design. S-ABA was applied using a commercial airblast sprayer. S-ABA was applied at a concentration of 200 ppm in a volume of approximately 2000 L/Ha (approximately 200 gallons/A) in order to achieve thorough and complete coverage of the grape bunches. A 20% S-ABA soluble granule formulation was utilized in the experiment. The commercial surfactant Agral was included at a rate of 10 ml/100 L spray. Applications of S-ABA were made at pre-veraison (approximately 3 weeks before veraison or berry softening), veraison, and during the post-veraison period when the grape sugar levels had reached approximately 10-11 Baume (18-20° brix). The 10-11 Baume application took place 36 days after the veraison application. Irrigation, summer pruning, insecticide/fungicides and other routine vine management practices were the same as those practiced commercially by the grower in the adjacent parts of the vineyard.
# (§2) Wine was produced from the grapes from each of the S-ABA treatments. Small lot primary fermentations were conducted and the wine was bottled. Triplicate ferments of each treatment were conducted using approximately 3×50 kg of grapes. Each replicate ferment contained an equal volume of grapes from each of the four field replicates. Grapes were harvested from the central panels within each replicate. All grapes were harvested from both sides of the vines from these panels. The grapes were transferred immediately to the experimental winery, protected from heat and treated with sulfur dioxide. A standard winemaking protocol used for small-scale replicated primary fermentations was followed. Following the fermentation, the wine was bottled.
# (§3) Sensory analysis was conducted on the treated and untreated wines. A panel consisting of nine experienced wine tasters evaluated the wines for aroma and taste. The wine grape cultivar was identified, but no information regarding the field treatments was identified to the tasters.
# A straight judgment of difference test was conducted to determine if the wines were different from the untreated control. […] Therefore, these wines can be considered to be different from the reference wine, thereby implying a treatment effect.
# [2] = test system: white wine grape cultivar 'Semillon'; assay: Semillon wine descriptive analysis; details: for Aroma (descriptor): untreated: low aroma, some fruit; for Color (descriptor): untreated: pale straw
# Description: as §1, §2, §3
# A wine descriptive analysis was also conducted for the Semillon wines prepared from the untreated control and from the S-ABA treatments. The panels provided descriptive terms to characterize the aroma, taste and color profile of each wine. The methodology used was based on survey-style collection with a thematic analysis to pull out the most consistent terms (Table 5).
# [3] = test system: white wine grape cultivar 'Semillon'; assay: Semillon grape tasting panel; details: Semillon grapes sampled at preharvest and at harvest; panel of three tasters; 200 ppm S-ABA
# Description: as §1, with “Irrigation, summer pruning, insecticide/fungicides and other routine vine management practices were the same as those practiced commercially by the grower in the adjacent parts of the vineyard.” left out
# [4] = test system: white wine grape cultivar 'Semillon'; assay: Semillon field experiment: standard maturity berry measurements at harvest; details: for Baume: Semillon berries at harvest (54 days after veraison); for Titratable Acidity / pH: Semillon berries at harvest
# Description: as §1
# (§4) Grape samples were harvested at the time of commercial harvest for berry analysis and table wine production. For the standard maturity berry measurements, 12-20 bunches per replicate were sampled. Bunches were randomly selected from both sides of the vines. Samples were analyzed using standard analytical methods used by the grape and wine industry. For additional spectral analyses, samples of 100 berries from each treatment were collected prior to winemaking.
# [5] = test system: white wine grape cultivar 'Semillon'; assay: Semillon field experiment: spectral analysis of berries at harvest
# Description: as §1, §4
# [6] = test system: white wine grape cultivar 'Semillon'; assay: Semillon wine chemical (spectral) analysis
# Description: as §1, §2
# Chemical analyses were conducted on the wines prepared from the various treatments in the field experiment using industry standard analytical methods.
# [7] = test system: white wine grape cultivar 'Chardonnay'; assay: Chardonnay grape tasting panel; details: Chardonnay grapes sampled at preharvest and at harvest; panel of two tasters; 200 ppm S-ABA
# Description: A large block unreplicated field experiment was conducted on the white wine grape cultivar ‘Chardonnay’ in the Riverina growing region of New South Wales, Australia to test the effect of S-ABA on white grapes. Three treatments were tested: Untreated control, 200 ppm S-ABA applied at pre-veraison and 200 ppm S-ABA applied at veraison. Each block consisted of 4 rows and covered 0.4 Ha in size. S-ABA was applied using a commercial airblast sprayer. S-ABA was applied at a concentration of 200 ppm in a volume of approximately 1000 L/Ha (approximately 100 gallons/A) in order to achieve thorough and complete coverage of the grape bunches. A 20% S-ABA soluble granule formulation was utilized in the experiment. The commercial surfactant Kendeen 20 was included at a rate of 50 ml/100 L spray. Applications of S-ABA were made at pre-veraison (approximately 3 weeks before veraison or berry softening) and veraison. Irrigation, summer pruning, insecticide/fungicides and other routine vine management practices were the same as those practiced commercially by the grower in the adjacent parts of the vineyard.
# [8] = 200 ppm S-ABA applied at pre-veraison
# [9] = 200 ppm S-ABA applied at veraison
# [10] = 200 ppm S-ABA applied post-veraison (11 Baume)
# [11] = Semillon berries at harvest, 200 ppm S-ABA applied at pre-veraison
# [12] = Semillon berries at harvest, 200 ppm S-ABA applied at veraison
# [13] = Semillon berries at harvest, 200 ppm S-ABA applied post-veraison (11 Baume)
substance,measurement,setting,value
"(S)-5-(1-hydroxy-2,6,6,-trimethyl-4-oxo-2-cyclohexen-1-yl)-3-methyl-(2Z,4E)-pentadienoic acid [S-ABA]",Judgment of difference from the reference wine (untreated control),"[1]; All Semillon wines from the S-ABA treatments, nine tasters, with statistical significance",judged to be different from the reference wine
same,Statistically significant (difference from reference wine),[1]; [8],Yes
same,Number of tasters who selected as different from reference wine/Total number of tasters,[1]; [8],8/9
same,Statistically significant (difference from reference wine),[1]; [9],Yes
same,Number of tasters who selected as different from reference wine/Total number of tasters,[1]; [9],8/9
same,Statistically significant (difference from reference wine),[1]; [10],Yes
same,Number of tasters who selected as different from reference wine/Total number of tasters,[1]; [10],8/9
same,Taste (descriptor),"[2]; 200 ppm S-ABA applied at pre-veraison, untreated: citrus, acidic",Much more acidic
same,Aroma (descriptor),[2]; [8],More intense fruit
same,Color (descriptor),[2]; [8],Pale straw
same,Aroma (descriptor),[2]; [9],More intense fruit
same,Aroma (descriptor),[2]; [10],More intense fruit
same,Color (descriptor),[2]; [10],Pale straw
same,Effect on fruit aroma and acidic taste of the wine,[2]; 200 ppm S-ABA treatments,increased or intensified
same,Flavor of S-ABA treated grapes vs untreated grapes,[3],notable differences in flavor
same,Baume,[4]; 200 ppm S-ABA foliar spray applied at pre-veraison,11.6
same,Baume,[4]; 200 ppm S-ABA foliar spray applied at veraison,11.7
same,Baume,[4]; 200 ppm S-ABA foliar spray applied post-veraison (11 Baume),11.6
same,Titratable Acidity,[4]; [8],4.5
same,pH,[4]; [8],3.57
same,Titratable Acidity,[4]; [9],4.5
same,pH,[4]; [9],3.56
same,Titratable Acidity,[4]; [10],4.0
same,pH,[4]; [10],3.61
same,"Effect on berry sugar content (Baume), pH, titratable acidity or bunch weight","[4]; Semillon, 200 ppm S-ABA treatments",did not consistently affect
same,A280,[5]; [11],6.62
same,A320,[5]; [11],2.642
same,A420,[5]; [11],0.465
same,Est. of brown pigments,[5]; [11],0.47 a.u.
same,Total Flavonoids,[5]; [11],1.80 a.u.
same,Total Hydroxycinnamates,[5]; [11],1.24 a.u.
same,Total Phenolics,[5]; [11],2.62 a.u.
same,A280,[5]; [12],6.85
same,A320,[5]; [12],2.713
same,A420,[5]; [12],0.471
same,Est. of brown pigments,[5]; [12],0.47 a.u.
same,Total Flavonoids,[5]; [12],1.98 a.u.
same,Total Hydroxycinnamates,[5]; [12],1.31 a.u.
same,Total Phenolics,[5]; [12],2.85 a.u.
same,A280,[5]; [13],6.47
same,A320,[5]; [13],2.59
same,A420,[5]; [13],0.461
same,Est. of brown pigments,[5]; [13],0.46 a.u.
same,Total Flavonoids,[5]; [13],1.68 a.u.
same,Total Hydroxycinnamates,[5]; [13],1.19 a.u.
same,Total Phenolics,[5]; [13],2.47 a.u.
same,Effect on phenolic composition of the berries,"[5]; Semillon berries at harvest, 200 ppm S-ABA treatments",tended to increase
same,"Total phenolics, hydroxycinnamates, total flavonoids and estimated brown pigments (chemical analysis)","[5]; Semillon berries, 200 ppm S-ABA treatments vs untreated",some differences
same,Total Hydroxycinnamates,[6]; [8],0.8700 a.u.
same,Total Hydroxycinnamates,"[6]; 200 ppm S-ABA applied at veraison, untreated control vs. veraison P = 0.0604",0.9033 a.u.
same,Total Hydroxycinnamates,[6]; [10],0.8267 a.u.
same,Levels of hydroxycinnamates in S-ABA treated wines,"[6]; spectral analysis, 200 ppm S-ABA treatments",higher levels of hydroxycinnamates
same,Flavor of S-ABA treated grapes vs untreated grapes,[7],notable differences in flavor
